Measured values from patent publication US11752158B2 (priority 2007, dated 2023).
“And” between values parts separate entries of the source, which are not always exact repeats. Equal entries are not always repeated. “Also recorded” adds a separate entry of the source.

What was measured:
male Sprague-Dawley rats [1] = assay: Gross necropsy after 5-day i.v. dosing (Example 1); format: in vivo, rat; conditions: i.v. once a day for 5 days
Experimental: (§1) To examine the reduction of toxicity associated with the co-administration of 25-hydroxyvitamin D3 with 25-hydroxyvitamin D2 compared to 25-hydroxyvitamin D3 alone, 90 male Sprague-Dawley rats are treated intravenously for five consecutive days with various combinations of 25-hydroxyvitamin D3 and 25-hydroxyvitamin D2. One day prior to the initiation of the study, rats are randomly selected, assigned to groups and treated as follows in Table 3:
(§2) For each day's treatment of each animal, the appropriate material was administered i.v. Daily treatments were performed within a 3 hours window on each day. On the first day of treatment (pre-dose) and at 24 hours time points on day 2 before the second dose administration (0 being the time of the first injection), blood (˜1 mL) was collected from the jugular vein catheter from animals in Group 1 to 15 into unpreserved tubes. The serum was separated out, transferred into new tubes that were immediately frozen at approximately −80° C. Prior to the sacrifice of all animals at 120 hours on Day 6 blood (˜2 mL) was collected into unpreserved tubes from the jugular vein catheter from all animals. […] For each animal, the necropsy consisted of an external examination, including reference to all clinically recorded lesions, as well as internal “abbreviated” examinations.

male Sprague-Dawley rats [2] = assay: Serum calcium levels after 5-day i.v. dosing (Example 1, FIG. 2); format: in vivo, rat; conditions: Group 11: 6 μg/kg 25-hydroxyvitamin D3 alone, 5 day treatment period
Experimental: as §1, §2

[3] = Total serum 25-hydroxyvitamin D by LC-MS/MS (Example 1, FIG. 1); format: in vivo, rat; conditions: indicated dosing, daily for a period of 5 days; 120 hours post initial dose
Experimental: as §1
(§3) The concentration of total 25-hydroxyvitamin D at 120 hours post initial dose was determined in serum samples using a high-performance liquid chromatographic method using tandem mass spectrometry detection. The method was utilized to determine the individual concentrations of 25-hydroxyvitamin D3 and 25-hydroxyvitamin D2 in serum and the total was determined as a sum of the concentrations. At 24 h post final dose, serum collected from animals was analyzed for changes in levels of 25-hydroxyvitamin D3, 25-hydroxyvitamin D2 and their metabolites.

[4] = Serum metabolites of 25-hydroxyvitamin D3 and 25-hydroxyvitamin D2 (Example 1, FIG. 4 and 5); format: in vivo, rat
Experimental: as §3

male Sprague-Dawley rats [5] = assay: Serum calcium levels at day 5 (Example 2, FIG. 6); format: in vivo, rat; conditions: i.v. once a day for 5 days
Experimental: Another study was carried out to assess the effects of co-administration of 25-hydroxyvitamin D with 25-hydroxyvitamin D2 compared to 25-hydroxyvitamin D3 alone on 102 male Sprague-Dawley rats. Rats about […], about 175-250 g in weight, were divided into groups of six males each. The groups were administered various combinations of 25-hydroxyvitamin D3 and 25-hydroxyvitamin D2 intravenously (or the same volume of control vehicle) once daily via the jugular vein catheter, for five consecutive days, according to Table 5 below.
Dosing was carried out at similar times each day, within a three hour window of the time of last dose. Blood was collected at day 0 (the first day of treatment) for analysis, and animals were monitored twice daily. Animals from all groups were euthanized on day 5, 24 hours after the last dose, and blood was collected by cardiac puncture. All rats were subjected to an abbreviated necropsy.

[6] = test system: patients with end-stage renal disease (ESRD); assay: Serum calcium in end-stage renal disease patients on hemodialysis (Example 4); format: in vivo, human; conditions: i.v. thrice weekly
Experimental: (§4) The formulations examined in this study are aqueous isotonic and sterile solutions containing either 20 mcg of 25-hydroxyvitamin D3 alone (test preparation #1) or in combination with 10 mcg 25-hydroxyvitamin D2 (test preparation #2). A total of 75 […] Caucasian, Asian, Hispanic and African-American subjects participate in this study, all of whom are at least 4-months on regular hemodialysis and have serum 25-hydroxyvitamin D levels below 15 ng/mL. Prior to enrolling, all subjects provide two fasting morning blood samples, separated by at least one week, to establish pre-treatment baseline values of serum calcium, plasma intact PTH, and serum 25-hydroxyvitamin D. On the morning of Day 1, the subjects are randomly assigned to one of three treatment groups, and they begin thrice weekly dosing with the test preparation #1 or #2, or with a matching placebo. All dosing occurs during regularly scheduled hemodialysis sessions and is accomplished by gradual injection (over a period of 1 to 5 minutes) into the blood exiting from the hemodialysis machine. […] At the conclusion of the study, the laboratory data are analyzed by treatment group and by test formulation after appropriate correction for baseline values. […]

[7] = Serum 25-hydroxyvitamin D in end-stage renal disease patients on hemodialysis (Example 4); format: in vivo, human; conditions: i.v. thrice weekly, 20 mcg 25-hydroxyvitamin D3 alone or with 10 mcg 25-hydroxyvitamin D2; first 3 months of dosing, steady state thereafter
Experimental: as §4

[8] = test system: patients with advanced prostate cancer; conditions: human, in vivo, po
Description: The efficacy and safety of an oral preparation of 25-hydroxyvitamin D2 is examined in a 3-month study of patients with advanced prostate cancer being treated with high-dose calcitriol once per week. For this study, 25-hydroxyvitamin D2 was formulated in soft-gelatin capsules. Forty patients with advanced prostate cancer undergoing treatment with high-dose calcitriol and Docetaxel were divided into two equal groups. Along with weekly calcitriol doses, group #1 receives between 2-20 mcg 25-hydroxyvitamin D2, while group #2 receives placebo. Prior to enrolling, all subjects provide two fasting morning blood samples, separated by at least one week, to establish pre-treatment baseline values of serum calcium, plasma intact PTH, and serum 25-hydroxyvitamin D. Additional fasting blood samples and 24-hour urine collections are obtained from each subject 24 h following the administration of the weekly administration of calcitriol for determination of serum calcium and serum 25-hydroxyvitamin D. Throughout the study, all subjects adhere to a daily intake of approximately 1,000 to 1,500 mg of elemental calcium (from self-selected diets and calcium supplements, as needed) under the ongoing guidance of a dietician. At the conclusion of the study, the laboratory data are analyzed by treatment group and by test formulation after appropriate correction for baseline values.

| Compound | Gross Necropsy Findings (male Sprague-Dawley rats [1]; Group 6: 25-hydroxyvitamin D2 0 μg/kg, 25-hydroxyvitamin D3 0.3 μg/kg) | Gross Necropsy Findings (male Sprague-Dawley rats [1]; Group 11: 25-hydroxyvitamin D2 0 μg/kg, 25-hydroxyvitamin D3 6 μg/kg) | serum calcium levels (male Sprague-Dawley rats [2]) | total serum 25-hydroxyvitamin D [3] | metabolism / catabolism of the prohormone ([4]; observation in rats, serum 24 h post final dose) | Serum calcium levels at day 5 (male Sprague-Dawley rats [5]; 4 μg/kg 25-hydroxyvitamin D3 alone) | Serum calcium levels at day 5 (male Sprague-Dawley rats [5]; 8 μg/kg 25-hydroxyvitamin D3 alone) | mean serum calcium ([6]; 20 mcg 25-hydroxyvitamin D3 alone or with 10 mcg 25-hydroxyvitamin D2, 3-month study) | episodes of hypercalcemia (serum calcium above 10.2 mg/dL) ([6]; 20 mcg 25-hydroxyvitamin D3 alone, 3-month study) | serum 25-hydroxyvitamin D levels [7] | metabolism / catabolism of the prohormone ([4]; rat, in vivo) | episodes of hypercalcemia (serum calcium above 10.2 mg/dL) [8] |
| --- | --- | --- | --- | --- | --- | --- | --- | --- | --- | --- | --- | --- |
| C=C1CC[C@H](O)C/C1=C/C=C1\CCC[C@]2(C)[C@@H]([C@H](C)CCCC(C)(C)O)CC[C@@H]12 [25-hydroxyvitamin D3] | None | Severe signs of toxicity (blood in the lungs) and 4 of 6 animals treated exhibiting blood in lung tissue and 4/6 animals had | highest achieved level of serum calcium; also recorded: hypercalcemia | elevation | catabolized more readily to the active 1,25-dihydroxyvitamin D3 form | hypercalcemia | hypercalcemia | increase significantly from baseline | more frequently observed | progressively increasing | – | – |
| C=C1CC[C@H](O)C/C1=C/C=C1\CCC[C@]2(C)[C@@H]([C@H](C)/C=C/[C@H](C)C(C)(C)O)CC[C@@H]12 [25-hydroxyvitamin D2] | – | – | – | – | – | – | – | – | – | – | catabolized more readily to 24, 25-dihydroxyvitamin D2 | more frequently observed in the placebo group than in the treatment group |
